Tests used:
lung (A549) = details: cited from earlier work
MCF-7 = assay: MTS cell viability (cytotoxic activity) assay, MCF-7; format: cell-based, Human; details: for IC50: Homo sapiens, MCF7, MCF-7, MTS, 72 h, mean ± SD, at least three experiments
Source text: (§1) Human colorectal cancer (COLO 205, CCL-222), breast cancer (MCF-7, HTB-22), chronic myelogenous leukemia (K-562, CCL-243), and umbilical vein/vascular endothelium (HUVEC, CRL-1730) cell lines were obtained from the American Type Culture Collection. The COLO 205, MCF-7, K-562, and HUVEC cell lines were maintained in Roswell Park Memorial Institute ([…], Wisent, Montreal, QC, CANADA), Eagle′s Minimum Essential Medium (EMEM, Wisent, Montreal, QC, CANADA), Iscove’s Modified Dulbecco’s Medium (IMDM, Wisent, Montreal, QC, CANADA), and Dulbecco′s Modified Eagle Medium (DMEM, Wisent, Montreal, QC, CANADA) supplemented with 10% fetal bovine serum (Capricorn, Ebsdorfergrund, Germany), 100 U/mL penicillin, and 100 µg/mL streptomycin (Wisent, Montreal, QC, CANADA), respectively. All of the cell lines were cultured at 37 °C in a humidified atmosphere containing 5% CO2.
(§2) A 3-[4,5-dimethylthiazol-2-yl]-5-[3-carboxymethoxyphenyl]-2-[4-sulfophenyl]-2H-tetrazolium, inner salt (MTS) cell viability assay was performed to evaluate the cytotoxic activities of the sesquiterpene coumarin ethers isolated from Ferula huber-morathii. HUVEC (1 × 10^4), COLO 205 (3 × 10^4), K-562 (3 × 10^4), and MCF7 (5 × 10^4) were plated in 96-well plates. Then, 24 h later, the tested compounds were dissolved in DMSO, and the cells were exposed to the different concentrations (131.58–1.028 µM) of the compounds for 72 h. Cisplatin and doxorubicin were used as a positive control. Next, an MTS/phenazine methosulfate (PMS) (Promega, Madison, WI, USA and Sigma, St. Louis, MO, USA respectively) mixture was added to each well and incubated for 1–4 h at 37 °C. The absorbance was read on a microplate reader (Biotek, Winooski, VT, USA) at 490 nm. The cytotoxic activities of the compounds were expressed as an IC50 value. The % inhibition of cell proliferation was calculated using the formula: % Inhibition = [1-(A490test/A490cont)] × 100, where A490test = absorbance of the test sample and A490cont = absorbance of the control sample [88]. The values of the 50% inhibition of the cell proliferation (IC50) were calculated by locating the x-axis values corresponding to one-half of the absorbance values of the sample.

stomach (AGS) = test system: stomach (AGS); parameters: method as in PMID 25843566, PMID 20961138, PMID 20628935, PMID 22351980, PMID 25818230; details: cited from earlier work
cervical (HeLa) = details: cited from earlier work
HUVEC = assay: MTS cell viability (cytotoxic activity) assay, non-cancerous HUVEC; format: cell-based, Human; details: Homo sapiens, 72 h, mean ± SD, at least three experiments
Source text: as §1, §2

COLO 205 = assay: MTS cell viability (cytotoxic activity) assay, COLO 205; format: cell-based, Human; details: Homo sapiens; COLO 205, MTS, 72 h; mean ± SD, at least three experiments
Source text: as §1, §2

[1] = test system: bladder cancer cells (5637); details: bladder (TCC, 5637); cited from earlier work
ovarian (A2780) = details: ref Soltani et al. 67, read-out: cytotoxic activity A2780; cited from earlier work
[2] = test system: COLO 205, K-562, MCF-7 and HUVEC cell lines; assay: MTS cytotoxicity, overall verbal grading over the cell line panel; format: cell-based, Human; details: authors' verbal summary over COLO 205, K-562, MCF-7, HUVEC
Source text: as §1, §2

colon (HCT116) = details: HCT-116; ref Soltani et al. 67; read-out: cytotoxic activity HCT-116; cited from earlier work
[3] = test system: chronic myelogenous leukemia (K562); details: cited from earlier work
K-562 = assay: MTS cell viability (cytotoxic activity) assay, K-562; format: cell-based, Human; details: for IC50: Homo sapiens, K562, K-562, MTS, 72 h, mean ± SD, at least three experiments
Source text: as §1, §2

[4] = test system: MCF-7 breast cancer cell line; details: read-out: cytotoxic effect MCF-7; cited from earlier work
Bcl-XL [5] = assay: Western blot, Bcl-XL protein level in HUVEC; format: cell-based, Human
[6] = test system: ovarian carcinoma cells (CH1); parameters: method as in PMID 23701832; details: ovarian carcinoma cell line (CH1); cited from earlier work
melanoma (SK-MEL-28) = details: ref Valiahdi et al. 29; cited from earlier work
caspase-9 = assay: Caspase-9 colorimetric activity assay in COLO 205 cells; format: cell-based, Human; details: COLO 205, 24 h, highest concentration (131.58 µM)
Description: (§3) The caspase-3, -8, and -9 activities were detected by following the protocol of the caspase-3, -8, -9 colorimetric assay kits (Biovision, K106, K113, K119, Mountain View, CA, USA). The cells treated with mogoltadone (5) for 24 h were harvested and lysed with a RIPA (50 mM Tris-HCl, pH 8.0, 150 mM NaCl, 1% Nonidet P-40, 0.5% sodium deoxycholate and 0.1% SDS) cell lysis buffer. The lysed cells were centrifuged at 22,000 g for 30 min and the supernatant was collected in a tube. The samples (200 µg protein) were incubated with caspase substrates (final concentration, 200 µM) at 37° C for 2 h and read on a microplate reader at 405 nm. The fold-increase in enzyme activity was detected by comparison with the untreated control.

caspase-3 [7] = assay: Caspase-3 colorimetric activity assay in COLO 205 cells; format: cell-based, Human; details: COLO 205, 24 h, highest concentration (131.58 µM)
Description: as §3

β-catenin [8] = assay: Western blot, β-catenin protein level in HUVEC; format: cell-based, Human
caspase-3 [9] = assay: Western blot, caspase-3 protein level in HUVEC; format: cell-based, Human
Description: (§4) To evaluate the effect of mogoltadone (5) on the caspase-3, Bcl-XL and β-catenin protein levels, the COLO 205 cell line was treated with mogoltadone (5) and incubated for 24 h. At the end of the incubation period, the treated cells were harvested. After that, the harvested cells were washed with cold phosphate buffered saline and lysed in a RIPA buffer. The samples were centrifuged at 24,000 g for 45 min at 4° C, and the supernatants were used to determine the procaspase-3, Bcl-XL, β-catenin, and β-actin protein levels by western blot analysis. The cellular proteins were separated on sodium dodecyl sulfate-polyacrylamide gels (SDS-PAGE, AnyKD mini protean TGX precast protein gel, Bio-Rad, Hercules, CA, USA, 4569033). The separated proteins were transferred to the polyvinylidene difluoride (PVDF) membrane using the Trans-Blot Turbo transfer system (Bio-Rad). The membrane was then blocked with a 5% non-fat milk blocking buffer and consecutively incubated with rabbit monoclonal Bcl-XL antibody (1:20,000, ab17884, Abcam), rabbit monoclonal caspase-3 antibody (1:3000, ab3235, Abcam, Cambridge, MA, USA), rabbit monoclonal beta-actin antibody (1:10,000, M01263, BOSTER, Beijing, China), and rabbit polyclonal β-catenin antibody (1/5,000, ab264263, Abcam, Cambridge, MA, USA) overnight at 4° C. […]

caspase-8 = assay: Caspase-8 colorimetric activity assay in COLO 205 cells; format: cell-based, Human; details: COLO 205, 24 h, highest concentration (131.58 µM)
Description: as §3

Bcl-XL [10] = assay: Western blot, Bcl-XL protein level in COLO 205; format: cell-based, Human; details: COLO 205, 24 h
Description: as §4

[11] = test system: cisplatin-resistant derivatives of the human ovarian (A2780P A2780/RCIS); details: cited from earlier work
β-catenin [12] = assay: Western blot, β-catenin protein level in COLO 205; format: cell-based, Human; details: COLO 205, 24 h
Description: as §4

procaspase-3 = assay: Western blot, procaspase-3 protein level in COLO 205; format: cell-based, Human; details: COLO 205, 24 h, significant at 131.58 µM
Description: as §4

Compound: CC1=CC[C@@H]2C(C)(C)[C@H](O)CC[C@@]2(C)[C@@H]1COc1ccc2ccc(=O)oc2c1 [Feselol (3), feselol]
- IC50 (lung (A549); ref Soltani et al. 67, read-out: cytotoxic activity A549): 26 µM
- IC50 (MCF-7): 36 ± 1.29 µM
- cytotoxic activity on stomach (AGS), in words (stomach (AGS)): did not show any cytotoxic activity
- cytotoxic activity on HeLa, in words (cervical (HeLa)): did not show any cytotoxic activity
- IC50 (cervical (HeLa); ref Soltani et al. 67, read-out: cytotoxic activity HeLa): 35 µM
- IC50 (HUVEC): 38.8 ± 0.83 µM
- IC50 (COLO 205): 38.4 ± 0.8 µM
- cytotoxic activity on bladder (TCC, 5637), in words [1]: did not show any cytotoxic activity
- IC50 (ovarian (A2780)): 20 µM
- cytotoxicity in words [2]: moderate or strong cytotoxicity
- IC50 (colon (HCT116)): 28 µM
- cytotoxic activity on K562, in words [3]: did not show any cytotoxic activity
- IC50 (K-562): 72.5 ± 0.74 µM

Compound: C=C1CCC2C(C)(C)C(=O)CCC2(C)C1COc1ccc2ccc(=O)oc2c1 (centres unmarked) [Mogoltadone (5), mogoltadone]
- cytotoxic activity against A549, in words (lung (A549); ref Valiahdi et al. 29): did not find any potent cytotoxic activity
- selectivity index MCF-7 (MCF-7; HUVEC versus MCF-7): > 8.64
- IC50 (MCF-7): 30.4 ± 0.6 µM
- IC50 [4]: > 100 µM
- effect on Bcl-XL protein level (Bcl-XL [5]): did not have a statistically significant effect
- cytotoxic effect against CH1, in words [6]: moderate cytotoxic effects
- cytotoxic activity against SK-MEL-28, in words (melanoma (SK-MEL-28)): did not find any potent cytotoxic activity
- IC50 (HUVEC): > 200 µM
- increase in caspase-9 activity compared with the control (caspase-9): 1.97 fold
- IC50 (COLO 205): 31.71 ± 0.15 µM
- increase in caspase-3 activity compared with the control (caspase-3 [7]): 4.72 fold
- effect on β-catenin protein level (β-catenin [8]): did not have a statistically significant effect
- effect on caspase-3 protein level (caspase-3 [9]): did not have a statistically significant effect
- increase in caspase-8 activity compared with the control (caspase-8): 2 fold
- effect on Bcl-XL level (Bcl-XL [10]): suppressed
- cytotoxicity in words [2]: moderate or strong cytotoxicity
- effect of combination with cisplatin on cisplatin cytotoxicity ([11]; A2780/RCIS cells, combination with cisplatin): significantly enhanced the cisplatin cytotoxicity
- IC50 ([11]; A2780/RCIS, read-out: cytotoxic effect A2780/RCIS): > 50 µM
- effect on β-catenin levels (β-catenin [12]): decreased
- effect on procaspase-3 level (procaspase-3): decreased
- selectivity index K-562 (K-562; HUVEC versus K-562): > 12.46
- IC50 (K-562): 21.1 ± 0.85 µM

Source: publication PMC10305617, “Sesquiterpene Coumarin Ethers with Selective Cytotoxic Activities from the Roots of Ferula huber-morathii Peşmen (Apiaceae) and Unequivocal Determination of the Absolute Stereochemistry of Samarcandin” (Pharmaceuticals, 2023)
